In brackets after ≈: the same amount, converted by molar mass.
Columns and labels:
[1] = molecular target: T1, glucocerebrosidase (Gcase) (Homo sapiens, UniProt P04062); assay: Glucocerebrosidase (Gcase) activation assay, 4-methylumbelliferyl-beta-D-glucopyranoside substrate, fluorescence; format: biochemical; settings: 0.25 h, 10 nM GCase, 100 nM saposin C; for activation at 0.1 µM: pH 4.7, test compound at 0.1 μM, read-out: Percent Gcase Activation 0.1 μM Test Compound; for activation at 1 µM: pH 4.7, test compound at 1.0 μM, read-out: Percent Gcase Activation 1 μM Test Compound
T1 sequence (P04062 40-536): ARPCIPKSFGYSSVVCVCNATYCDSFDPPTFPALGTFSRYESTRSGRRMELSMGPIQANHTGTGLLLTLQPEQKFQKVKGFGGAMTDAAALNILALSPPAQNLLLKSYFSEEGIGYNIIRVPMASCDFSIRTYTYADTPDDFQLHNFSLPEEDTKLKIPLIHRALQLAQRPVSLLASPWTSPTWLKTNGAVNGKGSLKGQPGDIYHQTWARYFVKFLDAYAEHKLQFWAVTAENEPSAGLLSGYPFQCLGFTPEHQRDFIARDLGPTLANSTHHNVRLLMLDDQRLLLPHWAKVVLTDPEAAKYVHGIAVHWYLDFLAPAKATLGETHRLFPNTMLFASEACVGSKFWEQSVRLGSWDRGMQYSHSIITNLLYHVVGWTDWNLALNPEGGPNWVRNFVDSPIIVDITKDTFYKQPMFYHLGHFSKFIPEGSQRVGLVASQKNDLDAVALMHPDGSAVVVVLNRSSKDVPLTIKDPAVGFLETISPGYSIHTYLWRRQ
Experimental: The ability of exemplary compounds to activate glucocerebrosidase (Gcase) was measured.
A 484 μL aliquot of a 1.0 mg/mL solution of phosphatidylserine (PS) (Sigma P7769) in chloroform was evaporated under a stream of nitrogen for 1 hour. The lipid film was dissolved over 4 minutes of vigorous vortexing in 40 mL of 176 mM K2HPO4/50 mM citric acid (pH 4.7) containing 7.5 μL of triton X-100, resulting in a mixed micellar preparation with a composition of 0.32 mM triton and 0.37 mol % PS. 4-Methylumbelliferyl-beta-D-glucopyranoside (ACROS-337025000) was dissolved in the micellar solution to a final concentration of 2 mM for use as the reaction substrate.
Test compounds were diluted to the desired concentrations with dimethylsulfoxide (DMSO) from 10 mM stocks, and 0.41 μL of the DMSO compound mixture was added to 100 μL of micellar solution containing 10 nM GCase and 100 nM saposin C (Enzo ALX-201-262-C050). Pre-incubation was allowed to occur for 30 minutes at room temperature, after which the reaction was initiated by combining 25 μL of substrate solution with 25 μL of compound/GCase/saposin mixture. The reaction proceeded for 15 minutes at room temperature and was stopped by adding 150 μL of 1M glycine, pH 12.5. The endpoint of the reaction was monitored by measuring fluorescence intensity (excitation: 365 nm; emission: 440 nm) on a SpectraMax i3 instrument (Molecular Devices). Test compounds were screened at 1.0 and 0.1 μM final concentration, and subsequent 8-point dose response curves were obtained using 3-fold dilutions from a maximum final concentration of 5 μM.
For experiments in which the test compound was used at a concentration of 1.0 μM, the symbol “+” indicates less than 30% Gcase activation; the symbol “++” indicates Gcase activation in the range of 30% up to 60%; and the symbol “+++” indicates Gcase activation greater than 60%. For experiments in which the test compound was used at a concentration of 0.1 μM, the symbol “*” indicates less than 10% Gcase activation; the symbol “**” indicates Gcase activation in the range of 10% up to 20%; and the symbol “***” indicates greater than 20% Gcase activation.

[2] = Compound solubility in water; format: physicochemical

| SMILES | activation at 0.1 µM [1] [%] | activation at 1 µM [1] [%] | solubility [2] [µg/mL] |
| --- | --- | --- | --- |
| COC1CCC(Nc2cc(C)n3ccc(C(=O)NC(C)(C)C4CC4)c3n2)CC1 (stereo not drawn) [II1-37] | < 10 | 30 to 60 | 10.2 (≈ 26.5 µM) |
| COCc1cc(C)nc2c(C(=O)NC(C)(C)C3CC3)ccn12 [III 16] | > 20 | > 60 | 19.8 (≈ 65.7 µM) |
| COCc1cc(C(F)F)nc2c(C(=O)NC(C)(C)C3CC3)ccn12 [III-3] | > 20 | > 60 | 3.8 (≈ 11.3 µM) |
| COCc1cc(C(F)F)n2ccc(C(=O)NC(C)(C)C3CC3)c2n1 [III-4] | > 20 | > 60 | 17 (≈ 50.4 µM) |
| COCc1cc(C(F)F)nc2c(C(=O)NC(C)(C)C3CCC3)ccn12 [III-5] | 10 to 20 | > 60 | 3 (≈ 8.54 µM) |
| C[C@H](NC(=O)c1ccn2c(C(F)F)cc(C(F)F)nc12)C1CC1 [III-6] | 10 to 20 | > 60 | 33.5 (≈ 102 µM) |
| Cc1cc(C(F)F)nc2c(C(=O)N[C@@H](C)C3CC3)ccn12 [III-7] | > 20 | > 60 | 9.5 (≈ 32.4 µM) |
| Cc1cc(C(F)F)n2ccc(C(=O)N[C@@H](C)C3CC3)c2n1 [III-8] | > 20 | > 60 | 20.1 (≈ 68.5 µM) |
| CNc1cc(C)n2ccc(C(=O)NC(C)(C)C3CC3)c2n1 [III-10] | > 20 | > 60 | 11 (≈ 38.4 µM) |
| Cc1cc(Cl)nc2c(C(=O)NC(C)(C)C3CC3)ccn12 [III-11] | > 20 | > 60 | 1.1 (≈ 3.77 µM) |
| Cc1cc(Cl)n2ccc(C(=O)NC(C)(C)C3CC3)c2n1 [III-12] | 10 to 20 | > 60 | 5.8 (≈ 19.9 µM) |
| COc1cc(C)n2ccc(C(=O)NC(C)(C)C3CC3)c2n1 [III-13] | 10 to 20 | > 60 | 11.5 (≈ 40 µM) |
| Cc1cc(Br)nc2c(C(=O)NC(C)(C)C3CC3)ccn12 [III-14] | 10 to 20 | > 60 | 2.9 (≈ 8.62 µM) |
| COCc1cc(C)n2ccc(C(=O)NC(C)(C)C3CC3)c2n1 [III-15] | 10 to 20 | > 60 | 21.9 (≈ 72.7 µM) |
| Cc1cc(F)nc2c(C(=O)NC(C)(C)C3CC3)ccn12 [III-17] | 10 to 20 | > 60 | 6.3 (≈ 22.9 µM) |
| Cc1cc(C)n2ccc(C(=O)NC3(c4ccccc4)CC3)c2n1 [III-18] | 10 to 20 | > 60 | 7.7 (≈ 25.2 µM) |
| Cc1cc(C)n2ccc(C(=O)NC(C)(C)CC3CC3)c2n1 [III-19] | > 20 | > 60 | 14.7 (≈ 51.5 µM) |
| COCC(NC(=O)c1ccn2c(C)cc(C)nc12)c1ccccc1 (stereo not drawn) [III-20] | < 10 | > 60 | 13.7 (≈ 42.4 µM) |
| Cc1cc(C)n2ccc(C(=O)NC3(C4CC4)CC3)c2n1 [III-22] | 10 to 20 | > 60 | 21.4 (≈ 79.5 µM) |
| Cc1cc(C)n2ccc(C(=O)NC(C)(C)C3CC3)c2n1 [III-23] | > 20 | > 60 | 18.7 (≈ 68.9 µM) |
| Cc1cc(C)n2ccc(C(=O)NC(CC(C)C)C3CC3)c2n1 (stereo not drawn) [III-24] | > 20 | > 60 | 10.9 (≈ 36.4 µM) |
| Cc1cc(C)n2cc(C3CC3)c(C(=O)NC(C)(C)C3CC3)c2n1 [III-25] | < 10 | 30 to 60 | 0.3 (≈ 0.963 µM) |
| Cc1cc(C)n2c(C)cc(C(=O)N[C@@H](C)C3CC3)c2n1 [III-26] | 10 to 20 | > 60 | 8.6 (≈ 31.7 µM) |

From patent publication US11124516B2, “Pyrrolo[1,2-A]pyrimidinyl carboxamide compounds and their use in the treatment of medical disorders” (Bial—Biotech Investments, Inc., priority 2016, dated 2021)
